How the values were obtained:
[1] = molecular target: dopamine transporter (DAT) (Rattus norvegicus, UniProt P23977); assay: Inhibition of [3H]DA uptake by DAT in rat striatum; assay type: biochemical
[2] = molecular target: norepinephrine transporter (NET) (Rattus norvegicus, UniProt Q63380); assay: Inhibition of [3H]DA uptake by NET in rat cerebral cortex
[3] = molecular target: serotonin transporter (SERT) (Rattus norvegicus, UniProt P31652); assay: Inhibition of [3H]5-HT uptake by SERT in rat cerebral cortex; assay type: biochemical
Sequence of serotonin transporter (SERT) (P31652 whole entry): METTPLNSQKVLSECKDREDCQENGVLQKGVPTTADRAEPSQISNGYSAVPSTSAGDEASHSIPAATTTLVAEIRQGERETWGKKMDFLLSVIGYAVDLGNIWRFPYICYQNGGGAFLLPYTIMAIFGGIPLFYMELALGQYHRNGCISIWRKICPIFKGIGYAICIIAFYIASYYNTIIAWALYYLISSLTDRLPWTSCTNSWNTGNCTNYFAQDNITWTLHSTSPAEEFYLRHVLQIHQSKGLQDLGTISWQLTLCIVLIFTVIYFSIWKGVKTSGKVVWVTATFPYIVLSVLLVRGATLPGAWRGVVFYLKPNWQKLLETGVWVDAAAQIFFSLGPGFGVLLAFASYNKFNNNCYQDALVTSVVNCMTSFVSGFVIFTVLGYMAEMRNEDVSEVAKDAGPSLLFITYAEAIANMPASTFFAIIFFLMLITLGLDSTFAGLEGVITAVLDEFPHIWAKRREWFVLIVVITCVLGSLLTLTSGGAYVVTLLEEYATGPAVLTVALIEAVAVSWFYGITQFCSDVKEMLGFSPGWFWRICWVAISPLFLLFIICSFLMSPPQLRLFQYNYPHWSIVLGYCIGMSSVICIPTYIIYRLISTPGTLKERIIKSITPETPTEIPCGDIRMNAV

Sequence of dopamine transporter (DAT) (P23977 whole entry): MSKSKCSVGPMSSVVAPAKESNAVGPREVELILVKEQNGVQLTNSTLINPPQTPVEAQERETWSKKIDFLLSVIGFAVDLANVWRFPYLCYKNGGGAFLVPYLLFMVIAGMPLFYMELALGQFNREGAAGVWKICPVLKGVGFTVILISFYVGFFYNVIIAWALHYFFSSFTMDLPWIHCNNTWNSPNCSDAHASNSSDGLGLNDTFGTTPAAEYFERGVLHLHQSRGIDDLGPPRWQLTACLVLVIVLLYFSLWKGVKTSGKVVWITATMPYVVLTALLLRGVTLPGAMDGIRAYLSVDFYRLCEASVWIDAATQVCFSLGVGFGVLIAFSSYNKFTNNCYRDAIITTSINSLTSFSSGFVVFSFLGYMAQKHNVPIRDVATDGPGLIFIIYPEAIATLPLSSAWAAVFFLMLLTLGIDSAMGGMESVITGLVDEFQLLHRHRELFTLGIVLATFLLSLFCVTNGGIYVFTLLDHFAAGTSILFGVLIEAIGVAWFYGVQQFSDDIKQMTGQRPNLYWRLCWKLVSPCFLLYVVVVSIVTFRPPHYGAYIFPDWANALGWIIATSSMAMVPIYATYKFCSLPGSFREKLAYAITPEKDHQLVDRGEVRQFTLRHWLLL
Sequence of norepinephrine transporter (NET) (Q63380 1-617): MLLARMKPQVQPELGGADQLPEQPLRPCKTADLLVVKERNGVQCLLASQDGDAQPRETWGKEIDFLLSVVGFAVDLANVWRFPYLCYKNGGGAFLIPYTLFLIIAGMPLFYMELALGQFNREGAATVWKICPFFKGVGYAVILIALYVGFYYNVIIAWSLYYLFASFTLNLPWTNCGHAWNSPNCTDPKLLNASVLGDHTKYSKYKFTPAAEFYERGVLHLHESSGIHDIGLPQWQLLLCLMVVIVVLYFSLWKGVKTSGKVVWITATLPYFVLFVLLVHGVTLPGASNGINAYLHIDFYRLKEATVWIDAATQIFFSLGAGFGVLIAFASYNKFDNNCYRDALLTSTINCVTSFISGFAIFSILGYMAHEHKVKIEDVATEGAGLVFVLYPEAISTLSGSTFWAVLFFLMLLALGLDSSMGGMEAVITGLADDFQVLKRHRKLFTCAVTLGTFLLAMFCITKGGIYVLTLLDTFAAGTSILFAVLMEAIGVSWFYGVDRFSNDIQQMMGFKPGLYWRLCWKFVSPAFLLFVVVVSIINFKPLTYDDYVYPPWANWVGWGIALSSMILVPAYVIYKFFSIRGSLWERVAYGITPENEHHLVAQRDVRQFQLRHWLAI

| Molecule | Ki ([1]; read-out: Ki uptake inhibition, DAT, text value in µM) | Ki ([2]; read-out: Ki uptake inhibition, NET, text value in µM) | Ki ([3]; read-out: Ki uptake inhibition, SERT, text value in µM) | activity against DAT (in words) ([1]; uptake inhibition) | activity against NET (in words) ([2]; uptake inhibition) | activity against SERT (in words) ([3]; uptake inhibition) |
| --- | --- | --- | --- | --- | --- | --- |
| 3-((((3S,5S)-5-benzhydryltetrahydrofuran-3-yl)amino)methyl)phenol [compound 40] | 0.94 µM | 1.51 µM | 1.15 µM | – | – | – |
| c1ccc(CCN[C@@H]2CO[C@H](C(c3ccccc3)c3ccccc3)C2)cc1 [compound 44, (3S,5S)-5-benzhydryl-N-phenethyltetrahydrofuran-3-amine] | – | – | – | weak activity | weak activity | inactive |

Source: paper PMC3913050 (Bioorganic & medicinal chemistry, 2013)
